Laboratory results taken from patent US20120258170A1, “PHARMACEUTICAL CO-CRYSTALS OF QUERCETIN” (Nutracryst Therapeutics Private Limited, priority 2009, published 2012).
“Also recorded” adds a separate entry of the source. Counter-ions that a name gives are not always drawn. Like-named read-outs stand apart in the source and are kept apart here.

How the values were obtained:
[1] = Chronic effect on body weight in db/db mice; format: in vivo; details: Mean ± SEM; for Final day Body weight: after 21 days 300 mg/kg once daily; for % Increase in body weight: basal to final day
Procedure: (§1) Compounds and Vehicle: All test-compounds were formulated in tween CMC (10% of 2.5% tween 80+90% of 0.25% CMC) and prepared daily about 1 hr before administration. Animals were dosed for 21 days through oral gavage at dose volume of 10 ml/kg body weight.
(§2) Animals were dosed daily at around 10 AM to 11 AM with corresponding test compounds/vehicle at a volume of 10 ml/kg of body weight. Body weight, water intake and food intake was measured daily. After 14 days treatment plasma profile (PG, TG & TC) was measured in 4 hrs fasted animals. On that day animals were dosed post bleeding after keeping feed at 4 PM. After 21 days treatment plasma profile (PG, TG & TC) was measured in 4 hrs fasted animals. After bleeding, animals were administered with test compounds/vehicle and plasma glucose was measured 3 hrs post dosing with Glucometer. Immediately animals were provided with feed.
(§3) Statistics were applied using One-Way ANOVA followed by Dunnett's test using sigma stat software.

db/db mice [2] = experiment: Acute effect of test compounds on plasma glucose levels in db/db mice; format: in vivo; details: for % Reduction in plasma glucose (acute): 0 hr vs 3 hr post single dose 300 mg/kg per oral; for % Reduction in plasma glucose (acute) / 3 Hr plasma glucose / 0 Hr plasma glucose: Mean ± SEM; for 3 Hr plasma glucose: 3 hrs post single dose 300 mg/kg per oral; for 0 Hr plasma glucose: 4 hrs fasted, before dosing, 300 mg/kg per oral group; for plasma glucose levels 3 hrs post dosing with single dose (in words): acute administration, 300 mg/kg, vs control group
Procedure: (§4) Db/db mice were acclimatized to dosing and exposed to tail cut and r.o.p bleeding. Animals were grouped based on plasma glucose, triglyceride and cholesterol values. Acute effect of test compound on plasma glucose levels determined 3 hrs post dosing followed by administration of test compound for 21 days. After 14 days treatment, 4 hrs fasting plasma glucose levels were measured. After 21 days treatment, 4 hrs fasting plasma glucose levels were measured followed by test compound administration and measurement of plasma glucose levels 3 hrs post dosing.
(§5) Kits: Plasma glucose, cholesterol and triglyceride were measured using Dade Behring auto analyzer. Plasma insulin values measured using Rat/mouse insulin ELISA kit (Millipore, lot no 16006280). Tail cut method plasma glucose values measured using Contour TS glucometer strips (Lot WK8MD3E32A).
as §1
On the day of initiating study animals were fasted for 4 hrs and plasma glucose was measured with Glucometer by tail cut method. Animals were dosed with test compound/vehicle according to their body weight and 3 hrs post dosing plasma glucose levels were measured with Glucometer Immediately animals were provided with measured amount of feed.
Acute effect percent reduction in PG was calculated for each animal using the formula
{(0 hr PG−test hr PG)/0 hr PG}×100
as §3

db/db mice [3] = experiment: Chronic effect on plasma profile (PG, TC, TG), 4 hrs fasted, before dosing, in db/db mice; format: in vivo; details: for 14th day PG / 14th day TC / 14th day TG: 14 days 300 mg/kg once daily per oral, pre dosing; for 14th day PG / 14th day TC / 14th day TG / 21st day PG / 21st day TC / 21st day TG: 4 hr fasting; for % Red PG, 14th day / % Red TC, 14th day / % Red TG, 14th day: 14 days 300 mg/kg once daily; for % Red PG, 14th day / % Red TC, 14th day / % Red TG, 14th day / % Red PG, 21st day: adjusted for control and basal; for 21st day PG / 21st day TC / 21st day TG: 21 days 300 mg/kg once daily per oral, predosing; for % Red PG, 21st day / % Red TC (plasma cholesterol), 21st day / % Red TG (plasma triglyceride), 21st day: 21 days 300 mg/kg once daily; for % Red TC (plasma cholesterol), 21st day / % Red TG (plasma triglyceride), 21st day: post 4 hrs fasting, without dosing on the day; for Basal PG / Basal TC / Basal TG: 4 hrs fasted, before treatment, Mean ± SEM; for 4 hrs fasting plasma glucose levels after 21 days treatment (in words): chronic treatment 21 days
Procedure: as §4, §5, §1, §2
(§6) Blood samples from r.o.p bleeding were collected in micro centrifuge tubes containing 5 ul of EDTA Na ([…]). Plasma separated by centrifuging blood samples at 6000 rpm at 40 C for 5 minutes. Plasma glucose, total cholesterol and triglyceride were measured using Dade Bhering auto analyser. Plasma insulin was measured (in duplicate samples), using Millipore mouse/rat insulin ELISA kit.
(§7) The percent reduction in plasma profile parameters were calculated using the formula 1−(tt/tc)/bt/bc)×100; where tt: test day treated group mean value of the parameter; tc: test day control group mean value of the parameter; bc: Basal Control group mean value; bt: Basal treated group mean value.
as §3

db/db mice [4] = experiment: Chronic effect on plasma insulin levels in db/db mice; format: in vivo; set-up: % Reduction in plasma insulin / % Reduction@ in plasma insulin: concentration or dose not given beside the values; details: for % Reduction@ in plasma insulin: 21th day, calculated after adjusting for control group change; for 21th day insulin: 21 days 300 mg/kg once daily, 4 hr fasting, predosing; for % Reduction in plasma insulin: basal vs 21th day; for % Reduction in plasma insulin / Basal insulin: Mean ± SEM; for Basal insulin: before treatment
Procedure: as §5, §1, §2, §6, §7, §3

db/db mice [5] = experiment: Chronic effect (21 days) on plasma glucose 3 hrs post dosing in db/db mice; format: in vivo; details: for plasma glucose levels 3 hrs post dosing after 21 days treatment followed by administration on day 21 (in words): 300 mg/kg; for % Red PG, 21th day 3 hr post dosing / 21th day 3 hr post dosing PG: 21 days 300 mg/kg once daily, then dose; for 21th day 3 hr post dosing PG: Mean ± SEM
Procedure: as §4, §5, §1, §2, §7, §3

[6] = test system: AMP-activated protein kinase (AMPK); details: HepG2 cells; cited from earlier work
[7] = cited from earlier work
[8] = water
Procedure: The compounds disclosed herein are finely ground and passed through standard mesh filter and particles with 75-180 micron, and are tested for their solubility and dissolution profile.
The solubility studies for co-crystals and salts were performed according to Higuchi and Connor's method with some variations. Excess amounts (100 mg) of the samples were suspended in 10 mL of water in round bottom flask. Solutions were stirred at 300 rpm using a magnetic stirrer. After 72 h, the suspensions were filtered through a paper filter (Whatman 40)) and filtered aliquots were sufficiently diluted, the absorbance of the samples were measured at 232 nm and the values were normalized for API. […] A standard graph was made by measuring the absorbance of varied concentrations of API in water using a UV spectrophotometer (Nanodrop UV/vis spectrometer) at λmax 232 nm.

[9] = Stability of the co-crystal

| Structure (SMILES) | Final day Body weight [1] [g] | % Increase in body weight [1] [%] | Basal Body weight [1] [g] | % Reduction in plasma glucose (acute) (db/db mice [2]) [%] | 3 Hr plasma glucose (db/db mice [2]) [mg/dL] | 0 Hr plasma glucose (db/db mice [2]) [mg/dL] | 14th day PG (db/db mice [3]) [mg/dL] | 14th day TC (db/db mice [3]) [mg/dL] | 14th day TG (db/db mice [3]) [mg/dL] | % Red PG, 14th day (db/db mice [3]) [%] | % Red TC, 14th day (db/db mice [3]) [%] | % Red TG, 14th day (db/db mice [3]) [%] | 21st day PG (db/db mice [3]) [mg/dL] | 21st day TC (db/db mice [3]) [mg/dL] | 21st day TG (db/db mice [3]) [mg/dL] | % Red PG, 21st day (db/db mice [3]) [%] | % Red TC (plasma cholesterol), 21st day (db/db mice [3]) [%] | % Red TG (plasma triglyceride), 21st day (db/db mice [3]) [%] | Basal PG (db/db mice [3]) [mg/dL] | Basal TC (db/db mice [3]) [mg/dL] | further results |
| --- | --- | --- | --- | --- | --- | --- | --- | --- | --- | --- | --- | --- | --- | --- | --- | --- | --- | --- | --- | --- | --- |
| CN(C)C(=N)N=C(N)N [ILB-MCO-0906Q, Metformin hydrochloride] | 45.1 ± 0.6 | 14.5 ± 0.9 | 38.5 ± 0.5 | 52 ± 4 | 181 ± 25 | 373 ± 43 | 443.33 ± 40.27 | 144.51 ± 4.61 | 114.11 ± 4.76 | 3 | 6 | 17 | 400.80 ± 42.77 | 157.86 ± 8.76 | 127.00 ± 5.65 | 7 | 11 | 28 | 402.43 ± 26.13 | 155.90 ± 5.08 | plasma glucose levels 3 hrs post dosing with single dose (in words) (db/db mice [2]; hydrochloride): Significant lowering; also recorded: significant reduction; Basal TG (db/db mice [3]): 136.10 ± 5.39 mg/dL; 4 hrs fasting plasma glucose levels after 21 days treatment (in words) (db/db mice [3]; 300 mg/kg): did not show significant reduction; % Reduction@ in plasma insulin (db/db mice [4]): 28%; 21th day insulin (db/db mice [4]): 3.82 ± 0.72 ng/mL; % Reduction in plasma insulin (db/db mice [4]): 15.32 ± 7.16%; Basal insulin (db/db mice [4]): 4.42 ± 0.63 ng/mL; plasma glucose levels 3 hrs post dosing after 21 days treatment followed by administration on day 21 (in words) (db/db mice [5]; hydrochloride): significant lowering; also recorded: significant reduction; % Red PG, 21th day 3 hr post dosing (db/db mice [5]): 44%; 21th day 3 hr post dosing PG (db/db mice [5]): 200 ± 31 mg/dL |
| Oc1ccc(C=Cc2cc(O)cc(O)c2)cc1 [resveratrol] |  |  |  |  |  |  |  |  |  |  |  |  |  |  |  |  |  |  |  |  | AMPK phosphorylation [6]: increased |
| O.O.O=c1c(O)c(-c2ccc(O)c(O)c2)oc2cc(O)cc(O)c12 [ILB-MCO-0904Q, Quercetin dihydrate] | 44.6 ± 1.3 | 12.2 ± 2.3 | 39.1 ± 1.2 | 31 ± 4 | 293 ± 65 | 398 ± 67 | 476.41 ± 45.57 | 154.43 ± 6.50 | 129.08 ± 5.61 | −4 | −1 | 8 | 432.69 ± 42.38 | 151.25 ± 4.93 | 141.99 ± 8.25 | 0 | 15 | 21 | 402.50 ± 26.82 | 156.25 ± 4.53 | effect on plasma glucose levels with acute or chronic administration (in words) (db/db mice [3]; 300 mg/kg): Did not show significant effect; Basal TG (db/db mice [3]): 138.00 ± 8.04 mg/dL; % Reduction@ in plasma insulin (db/db mice [4]): 18%; 21th day insulin (db/db mice [4]): 2.90 ± 0.33 ng/mL; % Reduction in plasma insulin (db/db mice [4]): 0.29 ± 9.87%; Basal insulin (db/db mice [4]): 2.94 ± 0.20 ng/mL; % Red PG, 21th day 3 hr post dosing (db/db mice [5]): 4%; 21th day 3 hr post dosing PG (db/db mice [5]): 345 ± 41 mg/dL |
| N[C@@H](CC(=O)N1CCn2c(nnc2C(F)(F)F)C1)Cc1cc(F)c(F)cc1F [Sitagliptin] |  |  |  |  |  |  |  |  |  |  |  |  |  |  |  |  |  |  |  |  | Bioavailability [7]: 87%; Half Life [7]: 8 to 14 h |
| CN(C)C(=N)NC(=N)N.CN(C)C(=N)NC(=N)N.O.O.O=c1c(O)c(-c2ccc(O)c(O)c2)oc2cc(O)cc(O)c12 [ILB-MCO-0905Q, Quercetin dihydrate+Metformin free base co-crystal (1:2)] | 43.7 ± 1 | 10.1 ± 2.5 | 39.2 ± 0.8 | 48 ± 4 | 186 ± 21 | 358 ± 34 | 417.71 ± 37.85 | 153.68 ± 3.49 | 126.70 ± 6.25 | 8 | 2 | 8 | 368.96 ± 32.95 | 160.25 ± 4.29 | 129.66 ± 5.38 | 14 | 13 | 27 | 399.40 ± 26.54 | 160.42 ± 3.77 | solubility compared with the parent molecule Quercetin ([8]; listed as Quercetin dihydrate-Metformin co-crystal): substantially improved; solubility compared with the parent molecule Quercetin ([8]; listed as Quercetin dihydrate-Metformin co-crystals): greater than the parent molecule; plasma glucose levels 3 hrs post dosing with single dose (in words) (db/db mice [2]): Significant lowering; also recorded: significant reduction; Basal TG (db/db mice [3]): 135.94 ± 6.92 mg/dL; 4 hrs fasting plasma glucose levels after 21 days treatment (in words) (db/db mice [3]; 300 mg/kg): did not show significant reduction; % Reduction@ in plasma insulin (db/db mice [4]): 45%; 21th day insulin (db/db mice [4]): 3.03 ± 0.42 ng/mL; plasma insulin levels after 21 days treatment (in words) (db/db mice [4]; 21 days, 300 mg/kg, compared to control group): significant reduction; % Reduction in plasma insulin (db/db mice [4]): 30.56 ± 8.10 %; Basal insulin (db/db mice [4]): 4.55 ± 0.50 ng/mL; stability under accelerated conditions ([9]; accelerated conditions): stable; stability monitored once in seven days for 3 months ([9]; desiccated conditions): stable; hygroscopicity ([9]; normal conditions): hygroscopic; plasma glucose levels 3 hrs post dosing after 21 days treatment followed by administration on day 21 (in words) (db/db mice [5]): significant lowering; also recorded: significant reduction; % Red PG, 21th day 3 hr post dosing (db/db mice [5]): 38%; 21th day 3 hr post dosing PG (db/db mice [5]): 225 ± 33 mg/dL |
